Test results: patent publication EP3744328B1, “USES OF OXADIAZINE COMPOUNDS” (Valoralia I Más D, S.L.U., priority 2019, dated 2020)

Columns and labels:
[1] = tested on: THP-1 cell; assay: Cytotoxic activity assay; assay type: cell-based; conditions: 48 h, at the tested concentrations
Procedure: Cytotoxic activity assays. THP-1 cell was seeded in 96-well plates at a density of 5x10^4 cells/well and NIH/3T3 cells were seeded in 96-well plates at a density of 5x10^3 cells/well both incubated overnight at 37°C in a humidified atmosphere of 5% CO2. Subsequently, cells were treated with test compounds at the indicated concentrations and DMSO as control for 24 h. The test compounds were dissolved in DMSO (stock solution) and diluted with medium to a final DMSO concentration of 0.2%. MTT solution (50 µL, 7 mg/mL in PBS) was added to each well and plates were incubated for an additional 2 h. Next, the medium was removed and 100 µL of DMSO was added to each well to dissolve the formazan crystals that formed. The absorbance was measured at 590 nm using a spectrophotometric ELISA plate reader (SpectraMax® i3, Molecular Devices, CA, USA). Samples were considered nontoxic for the THP-1 and NIH/3T3 cell line when cell viability was ≥90%.
To analyse the cytotoxic activities of the test compound, THP-1 and NIH/3T3 cells were incubated with ODZN for 48 h and cytotoxicity was measured by fluorescence microscopy using an Incuyte microscope. […] (Figure 1).

[2] = Total antioxidant activity assay (DPPH free radical assay, cell-free)
Procedure: Total antioxidant activity assay. […] DPPH (1,1-Diphenyl-2-[…]) is a purple coloured stable free radical that is reduced to the yellow-coloured diphenylpicrylhydrazine. In a volume of 1 mL of methanol the test samples are mixed with DPPH 0.125 mM. Trolox (200 µM) is included as a positive control. After 30 min of incubation at room temperature in the dark the absorbance measurements are read at 517 nm using Thermo Scientific Genesys 10 uv scanning spectrophotometer. Lower absorbance of the reaction mixtures indicated higher free radical-scavenging activity. DPPH radical-scavenging activity is calculated according to the following formula: %Antioxidant activity = [(Ac−As)/Ac] × 100 [formula]
Where Ac (control) is the absorbance of the control reaction (DPPH) and As (sample) is the absorbance of DPPH and sample.

[3] = tested on: THP-1 cell; assay: Cellular antioxidant activity assay (TBHP-induced ROS production, DCFH-DA probe) in THP-1; assay type: cell-based; conditions: Homo sapiens, intracellular ROS induced by TBHP
Procedure: Cellular antioxidant activity assays. The intracellular accumulation of ROS is detected by fluorimetry using 2',7'-[…] (DCFH-DA). The THP-1 cell (1x10^5 cells/well) are cultured in a 96-well black plate in DMEM supplemented with 10% FBS; culture medium is renewed when the cells reached 80% confluence. For inhibition, the cells are pre-incubated with the test substances for 30 min and treated with 0,4 mM Tert-butylhydroperoxide (TBHP). After 3 h the cells are incubated with 10 µM DCFH-DA in the culture medium at 37°C for 30 min.
The acetate groups on DCFH-DA are removed by an intracellular esterase, trapping the probe inside the THP-1 cell. Then, the cells are washed with PBS at 37°C and the production of ROS measured by changes in fluorescence due to the intracellular accumulation of DCF caused by the oxidation of DCFH. Intracellular ROS, as indicated by DCF fluorescence is detected using the Incucyte FLR software; the data are analyzed by the total green object integrated intensity (GCU x µm^2 x well) of the imaging system IncuCyte HD (Essen BioScience).

[4] = tested on: NIH/3T3 cell; assay: Cellular antioxidant activity assay (TBHP-induced ROS production, DCFH-DA probe) in NIH/3T3; assay type: cell-based; conditions: Mus musculus, NIH3T3, intracellular ROS induced by TBHP
[5] = tested on: TNF-α; assay: TNF-α activity assay (ELISA) in THP-1; assay type: cell-based; conditions: Homo sapiens; THP-1 cell; read-out: inhibition of TNF-α production IC50
Procedure: (§1) TNF-α activity assays. The protein expression levels of TNF-α were measured by using an enzyme-linked immunosorbent assay (ELISA) kit according to the manufacturer's instructions (Diaclone). Absorbance was read at 450 nm on a spectrophotometric ELISA plate reader (Anthos 2020, Version 2.0.5, Biochrom Ltd.,UK). The percentage of TNF-α inhibition was calculated from the ratio between the observed TNF-α amount secreted by treated cells (nM) and the baseline secretion of TNF-α (nM). Dexamethasone (Sigma-Aldrich; 50-02-2), was used as positive control (0.01 µM). Results were normalized to the solvent control DMSO (0.1%).

[6] = tested on: TNF-α; assay: TNF-α activity assay (ELISA) in NIH/3T3; assay type: cell-based; conditions: Mus musculus, NIH3T3; NIH/3T3 cell; read-out: inhibition of TNF-α production IC50
Procedure: as §1

[7] = tested on: NF-κB; assay: NF-κB activity assay in THP-1; assay type: cell-based; conditions: Homo sapiens; THP-1 cell; read-out: inhibition of NF-κB production IC50
[8] = tested on: NF-κB; assay: NF-κB activity assay (KBF-Luc luciferase reporter) in NIH/3T3; assay type: cell-based; conditions: Mus musculus, NIH3T3; NIH/3T3 cell; read-out: inhibition of NF-κB production IC50
Procedure: NF-κB activity assays. The NIH/3T3-KBF-Luc cells has been stably transfected with the plasmid KBF-Luc plasmid, which contains three copies of NF-κB binding site (from major histocompatibility complex promoter), fused to a minimal simian virus 40 promoter driving the luciferase gene. Cells (1x10^4 for NIH/3T3-KBF-Luc) are seeded the day before the assay on 96-well plate. Then the cells are treated with the test substances for 15 min and then stimulated with 30 ng/mL TNF-α. After 6 h, the cells are washed twice with PBS and lysed in 50µl lysis buffer containing 25 mM Tris-phosphate (pH 7.8), 8 mM MgCl2, 1 mM DTT, 1% Triton X-100, and 7% glycerol during 15 min at RT in a horizontal shaker. Luciferase activity is measured using a GloMax 96 microplate luminometer (Promega) following the instructions of the luciferase assay kit (Promega, Madison, WI, USA). The RLU is calculated and the results are expressed as percentage of inhibition of NF-κB activity induced by TNF-α (100% activation). The experiments for each concentration of the test items will be done in triplicate wells.

[9] = tested on: STAT3; assay: STAT3 activity assay (HeLa-STAT3-luc luciferase reporter); assay type: cell-based; conditions: HeLa-STAT3-Luc cells, IFNγ 25 U/mL, 6 h; read-out: inhibition of IFNγ-induced STAT3 activation IC50
Procedure: STAT3 activity assay. The HeLa-STAT3-luc cells have been stably transfected with the plasmid 4xM67 pTATA TK-Luc. Cells (15 x10^3 cells/mL) are seeded 96-well plate the day before the assay. Then the cells are treated with the compound for 15 min and then stimulated with IFN-γ 25 IU/mL. After 6 h, the cells are washed twice with PBS and lysed in 50 µL lysis buffer containing 25 mM Tris-phosphate (pH 7.8), 8 mM MgCl2, 1 mM DTT, 1% Triton X-100, and 7% glycerol during 15 min at RT in a horizontal shaker. Luciferase activity was measured using GloMax 96 microplate luminometer (Promega) following the instructions of the luciferase assay kit (Promega, Madison, WI, USA). The RLU is calculated and the results are expressed as percentage of inhibition of STAT3 activity induced by IFN-γ (100% activation). The experiments for each concentration of the test items will be done in triplicate wells.

[10] = tested on: HIF-1α; assay: HIF-1α activity assay (NIH/3T3-EPO-luc luciferase reporter); assay type: cell-based; conditions: 6 h, read-out: inhibition of DFX-induced activation of EPO-Luc (surrogated marker of HIF-1α stabilization) IC50
Procedure: HIF-1α activity assay. The NIH/3T3-EPO-luc cells have been stably transfected with the plasmid Epo-Luc plasmid. The EPO-Hypoxia Response Element (HRE)-luciferase reporter plasmid contains three copies of the HRE consensus sequence from the promoter of the erythropoietin gene in the pGL3 vector. Cells (1x10^4 for NIH/3T3-EPO-luc) are seeded the day before the assay. The next day, the cells are stimulated either with the compound or Desferrioxamine (DFX) 150 µM as a positive control. After 6 hours of stimulation the cells are lysed in 25 mM Tris-phosphate pH 7.8, 8 mM MgCl2, 1 mM DTT, 1% Triton X-100, and 7% glycerol during 15 min at RT in a horizontal shaker. Luciferase activity is measured using a GloMax 96 microplate luminometer (Promega) following the instructions of the luciferase assay kit (Promega, Madison, WI, USA). The RLU is calculated and the results are expressed as percentage of inhibition induction/inhibition of EPO-luc activity. The experimentsfor each concentration of the test items will be done in triplicate wells.

[11] = biological target: T1, tyrosinase (Mus musculus, UniProt P11344); assay: Tyrosinase activity assay in B16-F10 melanoma cells; assay type: cell-based; conditions: 72 h treatment, read-out: inhibits melanin synthesis IC50
T1 construct: To measure the tyrosinase activity of the cells, the B16-F10 cells treated for 3 days; endogenous in cells; host or cells: B16-F10 melanoma cells
T1 sequence (P11344 19-533): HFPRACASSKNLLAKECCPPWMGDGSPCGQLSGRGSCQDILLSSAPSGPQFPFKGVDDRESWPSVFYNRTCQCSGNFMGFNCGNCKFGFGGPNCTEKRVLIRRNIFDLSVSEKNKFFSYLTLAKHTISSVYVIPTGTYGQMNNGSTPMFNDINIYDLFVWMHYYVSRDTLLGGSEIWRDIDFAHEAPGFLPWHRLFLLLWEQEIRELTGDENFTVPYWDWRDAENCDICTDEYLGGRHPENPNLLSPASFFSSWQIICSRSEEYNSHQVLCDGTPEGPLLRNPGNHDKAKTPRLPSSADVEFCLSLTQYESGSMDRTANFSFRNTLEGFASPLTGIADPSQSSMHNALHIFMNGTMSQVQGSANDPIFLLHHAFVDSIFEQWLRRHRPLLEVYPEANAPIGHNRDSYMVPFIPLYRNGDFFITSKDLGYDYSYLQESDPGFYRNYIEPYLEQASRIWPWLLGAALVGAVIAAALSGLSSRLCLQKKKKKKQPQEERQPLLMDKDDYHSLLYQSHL
Procedure: Tyrosinase activity assay. To measure the tyrosinase activity of the cells, the B16-F10 cells treated for 3 days with several doses of the compound is lysed by incubation at 4°C for 30 min in lysis buffer (20 mM sodium phosphate, pH 6.8, 1% Triton X-100, 1 mM PMSF, 1 mM EDTA) containing protease inhibitors cocktail. The lysates are centrifuged at 15,000 × g for 10 min to obtain the supernatant as the source of tyrosinase. The reaction mixture contained 20 mM phosphate buffer, pH 6.8, 1.25 mM L-DOPA (Sigma-Aldrich). After incubation at 37°C for 2 h, dopachrome formation is monitored by measuring absorbance at a wavelength of 475 nm in a microplatereader (TECAN). Kojic acid 2 mM is used as a positive control.

Row | IC50 ([2]; cell-free assay (DPPH)) [nM] | IC50 [3] [nM] | IC50 [5] [nM] | IC50 [6] [nM] | IC50 [7] [nM] | IC50 [8] [nM] | IC50 [9] [nM] | IC50 [10] [nM] | IC50 [11] [nM] | Compound | cytotoxicity [1] | IC50 [4] [nM] | antioxidant activity ([2]; DPPH free radical assay, standard, 200 µM positive control) [%]
1 | 9.77 | 10.6 | 14.8 | 8.21 | 56.3 | 31.8 | 1.57 | 9.59 | 16.9 | CCCCCC1=NN(C(=O)CCO)OC(CCCCC)C1 (stereo not drawn) [ODZN, 1-(4,6-dipentyl-5,6-dihydro-2H-1,2,3-oxadiazin-2-yl)-3-hydroxypropan-1-one] | no cytotoxicity | 3.33 | –
2 | – | – | – | – | – | – | – | – | – | Cc1c(C)c2c(c(C)c1O)CCC(C)(C(=O)O)O2 (stereo not drawn) [Trolox, reference compound] | – | – | 92.08
